Test system: HCV Genotype 3
Test: Patient-derived monocytes fused to hepatocytes, HCV RNA by qPCR
Type: cell-based
Conditions: fused cells from patients with genotype 3 HCV; 3 to 7 days with telaprevir; FIG. 8
Experimental: Patient derived monocytes from patients with genotype 1 and genotype 3 HCV were taken and incubated for a variety of different times (ranging from 3 to 7 days) with telaprevir at concentrations known to inhibit HCV RNA. The amount of HCV RNA was assessed using a standard qPCR technique and is expressed as the raw Ct value from the Corbett Rotorgene.
CD14+ monocytes were positively selected from total PBMCs by magnetic cell separation, according to the manufacturer's instructions. The CD14+ cells obtained were counted and pelleted with an equal number of HuH 7.5 cells. The cell pellet was resuspended in pre-warmed polyethylene glycol 1500 (PEG 1500, Roche) over 1 minute then incubated at 37° C. for 2 minutes. […]
RNA was extracted from fused cells immediately after fusion and following a 5 day incubation using TRIzol reagent (Invitrogen). Total RNA obtained was quantified using the RiboGreen assay (Invitrogen). HCV RNA was measured by reverse transcription-quantitative PCR (RT-qPCR) using the Quantitect viral nucleic acid detection kit (Qiagen) in 20 μL volumes with a TaqMan primer and probe for HCV detection (Applied Biosystems). 10-fold serial dilutions of PCR product corresponding to a 319 nucleotide segment between the 5′untranslated region and E1 region of the HCV genome were included as a quantitative standard. […]

CCC[C@H](NC(=O)[C@@H]1[C@H]2CCC[C@H]2CN1C(=O)[C@@H](NC(=O)[C@@H](NC(=O)c1cnccn1)C1CCCCC1)C(C)(C)C)C(=O)C(=O)NC1CC1 [telaprevir]
replication of HCV (HCV RNA): not inhibited
